# Target: T1, Amine oxidase [copper-containing] 3 (Homo sapiens, UniProt Q16853)
# T1 construct: gene AOC3
# Test: SSAO Activity Assay
# Description: Amine oxidase activity of recombinant hSSAO, hMAO-A, and hMAO-B isoforms are measured using the MAO-Glo assay kit (Promega, V1402). Ten nL test compounds (with DMSO as vehicle, 0.1% v/v for hSSAO, hMAO-A and hMAO-B) were added into assay plates by Echo, and pre-incubated with 5 μL of enzyme for 30 mins at room temperature before the addition of 5 μL of luminogenic substrate. The substrate concentration is 40 μM for human recombinant SSAO, 40 μM for human recombinant MAO-A, and 4 μM for human recombinant MAO-B. The hSSAO and hMAO-A assays were conducted in the MAO-A reaction buffer in the kit, and the MAO-B assay was conducted in the MAO-B reaction buffer. Oxidation of the substrate was conducted for 1 hr, before the addition of detecting reagent according the manufacture's protocol. The IC50 value of the tested compounds was calculated by fitting the dose response curve using a 4-parameter non-linear regression routine.
# T1 sequence (Q16853 whole entry, looked up): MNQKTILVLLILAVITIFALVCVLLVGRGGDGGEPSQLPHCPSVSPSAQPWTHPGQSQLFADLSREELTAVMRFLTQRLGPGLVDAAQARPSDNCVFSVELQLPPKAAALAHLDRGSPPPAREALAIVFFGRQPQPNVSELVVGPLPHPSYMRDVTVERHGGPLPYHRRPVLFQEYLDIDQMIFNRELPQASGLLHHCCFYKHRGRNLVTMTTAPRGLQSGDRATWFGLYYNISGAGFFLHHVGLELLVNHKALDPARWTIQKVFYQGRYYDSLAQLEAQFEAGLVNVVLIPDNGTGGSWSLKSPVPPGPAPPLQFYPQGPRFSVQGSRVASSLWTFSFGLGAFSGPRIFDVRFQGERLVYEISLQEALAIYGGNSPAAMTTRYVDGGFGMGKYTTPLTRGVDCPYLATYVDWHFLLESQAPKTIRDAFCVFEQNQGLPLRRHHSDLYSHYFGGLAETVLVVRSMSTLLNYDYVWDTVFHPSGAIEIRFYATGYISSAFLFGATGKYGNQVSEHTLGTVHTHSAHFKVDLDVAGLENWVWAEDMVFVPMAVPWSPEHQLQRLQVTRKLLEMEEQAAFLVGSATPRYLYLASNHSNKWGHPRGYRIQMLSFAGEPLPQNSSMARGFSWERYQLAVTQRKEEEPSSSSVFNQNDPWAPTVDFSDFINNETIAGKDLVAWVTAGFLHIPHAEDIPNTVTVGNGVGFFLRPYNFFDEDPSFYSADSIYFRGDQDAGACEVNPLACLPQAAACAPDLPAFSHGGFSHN
row,Structure (SMILES),IC50
1,"NC/C(=C\F)COc1ccc(S(=O)(=O)CC2CCOCC2)cc1 [US11472769, Compound 1]",< 20 nM
2,"CC1(CS(=O)(=O)c2ccc(OC/C(=C/F)CN)cc2)CCOCC1 [US11472769, Compound 5]",< 20 nM
3,"CC1(CS(=O)(=O)c2ccc(OC/C(=C/F)CN)cc2F)CCOCC1 [US11472769, Compound 7]",< 20 nM
4,"NC/C(=C\F)COc1ccc(S(=O)(=O)CC2CCOCC2)cc1F [US11472769, Compound 9]",< 20 nM
5,"NC/C(=C\F)COc1ccc(S(=O)(=O)C[C@H]2CC[C@H](O)CC2)cc1 [US11472769, Compound 14]",in the range around 60 nM
6,"NC/C(=C\F)COc1ccc(S(=O)(=O)C[C@H]2CC[C@@H](O)CC2)cc1 [US11472769, Compound 15]",< 20 nM
7,"NC/C(=C\F)COc1ccc(S(=O)(=O)CC23CCC(C4(O)CC4)(CC2)CC3)cc1 [US11472769, Compound 18]",< 20 nM
8,"CO[C@H]1CC[C@H](CS(=O)(=O)c2ccc(OC/C(=C/F)CN)cc2)CC1 [US11472769, Compound 19]",< 20 nM
9,"CO[C@H]1CC[C@@H](CS(=O)(=O)c2ccc(OC/C(=C/F)CN)cc2)CC1 [US11472769, Compound 20]",< 20 nM
10,"NC/C(=C\F)COc1ccc(S(=O)(=O)C[C@@H]2CCOC2)cc1 [US11472769, Compound 21]",in the range around 60 nM
11,"NC/C(=C\F)COc1ccc(S(=O)(=O)C[C@H]2CCOC2)cc1 [US11472769, Compound 22]",in the range around 60 nM
12,"NC/C(=C\F)COc1ccc(S(=O)(=O)C[C@@H]2CCCO2)cc1 [US11472769, Compound 23]",in the range around 60 nM
13,"NC/C(=C\F)COc1ccc(S(=O)(=O)C[C@H]2CCCO2)cc1 [US11472769, Compound 24]",< 20 nM
14,"COCS(=O)(=O)c1ccc(OC/C(=C/F)CN)cc1 [US11472769, Compound 28]",< 20 nM
15,"NC/C(=C\F)COc1ccc(S(=O)(=O)COCC2CCOCC2)cc1 [US11472769, Compound 30]",< 20 nM
16,"NC/C(=C\F)COc1ccc(S(=O)(=O)CC2CCN(C(=O)c3ccc(F)cc3)CC2)cc1 [US11472769, Compound 39]",< 20 nM
17,"NC/C(=C\F)COc1ccc(S(=O)(=O)Cc2ccc(C(=O)N3CCCC3)cc2)cc1 [US11472769, Compound 46]",in the range around 60 nM
18,"NC/C(=C\F)COc1ccc(S(=O)(=O)CC23CCC(C(=O)NC4CCC4)(CC2)CC3)cc1 [US11472769, Compound 64]",< 20 nM

# Other lines, results leading:
row,IC50,Structure (SMILES)
1,< 20 nM,"NC/C(=C\F)COc1ccc(S(=O)(=O)CC23CCC(NC(=O)C4CC4)(CC2)CC3)cc1 [US11472769, Compound 76]"
2,< 20 nM,"NC/C(=C\F)COc1ccc(S(=O)(=O)CC23CCC(NC(=O)CC(F)(F)F)(CC2)CC3)cc1 [US11472769, Compound 79]"
3,< 20 nM,"NC/C(=C\F)COc1ccc(S(=O)(=O)CC23CCC(N4CCCS4(=O)=O)(CC2)CC3)cc1 [US11472769, Compound 82]"
4,< 20 nM,"CC1CCN(C23CCC(CS(=O)(=O)c4ccc(OC/C(=C/F)CN)cc4)(CC2)CC3)C1=O (configuration not stated) [US11472769, Compound 83]"
5,< 20 nM,"N#CC12CCC(CS(=O)(=O)c3ccc(OC/C(=C/F)CN)cc3)(CC1)CC2 [US11472769, Compound 87]"
6,< 20 nM,"NC/C(=C\F)COc1ccc(S(=O)(=O)C[C@H]2CC[C@H](NC(=O)C3CC3)CC2)cc1 [US11472769, Compound 88]"
7,> 500 nM,"C[C@H](CN1CCCC1=O)CS(=O)(=O)c1ccc(OC/C(=C/F)CN)cc1 [US11472769, Compound 93]"
8,in the range around 60 nM,"C[C@@H](CN1CCCC1=O)CS(=O)(=O)c1ccc(OC/C(=C/F)CN)cc1 [US11472769, Compound 94]"
9,< 20 nM,"CC(C)C(=O)N(C)CC(C)(C)CS(=O)(=O)c1ccc(OC/C(=C/F)CN)cc1 [US11472769, Compound 96]"
10,in the range around 60 nM,"NC/C(=C\F)COc1ccc(S(=O)(=O)CC2CCCN(C(=O)C3CCCC3)C2)cc1 (configuration not stated) [US11472769, Compound 100]"
11,< 20 nM,"CC(C)n1nc(CS(=O)(=O)c2ccc(OC/C(=C/F)CN)cc2)ccc1=O [US11472769, Compound 102]"
12,in the range around 60 nM,"C[C@H](CN1CCCCC1=O)CS(=O)(=O)c1ccc(OC/C(=C/F)CN)cc1 [US11472769, Compound 104]"
13,in the range around 60 nM,"C[C@@H](CN1CCCCC1=O)CS(=O)(=O)c1ccc(OC/C(=C/F)CN)cc1 [US11472769, Compound 105]"
14,in the range around 60 nM,"C[C@H](CN1CCC2(CCCC2)C1=O)CS(=O)(=O)c1ccc(OC/C(=C/F)CN)cc1 [US11472769, Compound 109]"
15,in the range around 60 nM,"C[C@@H](CN1CCC2(CCCC2)C1=O)CS(=O)(=O)c1ccc(OC/C(=C/F)CN)cc1 [US11472769, Compound 110]"
16,in the range around 60 nM,"C[C@H](CN1CCOCC1)CS(=O)(=O)c1ccc(OC/C(=C/F)CN)cc1 [US11472769, Compound 112]"
17,< 20 nM,"C[C@@H](CN1CCOCC1)CS(=O)(=O)c1ccc(OC/C(=C/F)CN)cc1 [US11472769, Compound 113]"
18,< 20 nM,"NC/C(=C/F)COc1ccc(S(=O)(=O)CC23CCC(NC(=O)C4CC4)(CC2)CC3)cc1 [US11472769, Compound 139]"
19,in the range around 60 nM,"NC/C(=C\F)COc1ccc(S(=O)(=O)CC23CCC(C(=O)O)(CC2)CC3)cc1 [US11472769, Compound 146]"

# Source: BindingDB's records for patent US11472769 (Eccogene (Shanghai) Co., Ltd., 2022)
